Results on 85 molecules are retold here after ChEMBL document CHEMBL1157539, “Thousands of chemical starting points for antimalarial lead identification” (Nature, 2010).

This test concerns Plasmodium falciparum. Nature of the test: GSK_TCMDC: Inhibition of Plasmodium falciparum 3D7 in whole erythrocytes, using parasite LDH activity as an index of growth. Format: functional, organism-based. To be noted: Plasmodium falciparum, 3D7.

As to `CC(=O)Nc1ccc2[nH]cc(C3CCN(CCC4CCN(C(=O)/C=C/c5ccc(Cl)c(Cl)c5)CC4)CC3)c2n1`, the XC50 was 518 nM. The value for `CC(=O)Nc1ccc(C(=O)Nc2cccc(-c3ccc(-c4nc5cc(C(F)(F)F)ccc5[nH]4)s3)c2)cn1` was 126 nM; that for `CC1(C)N=C(N)N=C(N)N1OCC1COc2ccccc2O1` (stereo not given) was 35 nM; that for `C[C@H](Cc1ccc(OCCCOc2ccc(C[C@@H](C)NC[C@H](O)c3cccc(Cl)c3)cc2)cc1)NC[C@H](O)c1cccc(Cl)c1` was 780 nM. In the case of `COc1cc(Cc2cnc(N)nc2N)cc(OCCCCC2NC(=O)NC2=O)c1OC` (stereo not given) it was 714 nM; in that of `CCCC(=O)c1c(O)c2ccccc2oc1=O`, 265 nM; in that of `CC(C)(C)c1ccc2oc(=O)n(C3CCN(C(=O)c4ccc([N+](=O)[O-])o4)CC3)c2c1`, 816 nM. The value for `C=CCn1cc(C2CCN(CCCCNC(=O)c3sc(-c4ccc(C(F)(F)F)cc4)nc3CO)CC2)c2cc(OC)ccc21` was 1040 nM.

Consider `O=S(=O)(NCCN1CCCC1)c1ccc(-c2ccc(CNC3Cc4ccccc4C3)cc2)s1`, for which the XC50 was determined as 590 nM. In turn, `Cc1nc2nc(N)nc(N)c2c(C)c1Cc1cccc(C(N)=O)c1` came in with an XC50 of 1080 nM.

As to `O=S(=O)(NCCN1CCCC1)c1ccc(-c2cccc(CNCc3ccc(F)cc3)c2)cc1`, the XC50 came out at 729 nM. In the case of `COc1ccc2nccc(NC(=O)C3CCC(NCc4ccc5c(c4)NC(=O)CS5)CC3)c2c1` (stereo not given) it was 586 nM; in that of `COc1ccc(N2CCN(CCCCNC(=O)c3ccc(NC(=O)c4ccc(C(F)(F)F)cc4)cc3)CC2)c(OC)c1`, 593 nM.

`O=C(Nc1cccc(-c2cccc(-c3nc4cc(C(F)(F)F)ccc4[nH]3)c2)c1)c1ccncc1` came in with an XC50 of 201 nM. In the case of `O=C(NC1CCC(CN2CCC(c3c[nH]c4ccccc34)CC2)CC1)NC12CC3CC(CC(C3)C1)C2` (stereo not given) it was 1060 nM. The value for `Nc1nccc2ccc(-c3ccnc(NCc4cccnc4)n3)cc12` was 462 nM; that for `CCN(c1ccc(F)cc1)S(=O)(=O)c1cc(Br)cc2c1N(C(=O)C1CC1)CC2` was 943 nM. On to `CC(=NNC(S)=NCc1ccco1)c1ccccn1`, for which the XC50 was 254 nM. Regarding `Cc1cc2cc(/C=C/C(=O)NC3CCC(CCN4CCc5ccc(C#N)cc5CC4)CC3)ccc2[nH]1` (stereo not given), the XC50 worked out at 880 nM.

As to `Cc1[nH]c(C)c(-c2ccc(Oc3ccc(Cl)cc3)cc2)c(=O)c1Cl`, the XC50 was found to be 787 nM. On to `CCNc1cc(C(=O)N[C@@H](Cc2ccccc2)[C@H](O)CNCC(C)C)cc(N2CCCC2=O)c1`, for which the XC50 came to 485 nM.

Consider `O=C(NC1CCC(N2CCN(c3cccc(C(F)(F)F)c3)CC2)CC1)c1cc2ccccc2[nH]1` (stereo not given), for which the XC50 was 723 nM.

Take `CNC(=O)C1Cc2c([nH]c3ccc(Br)cc23)C2(CCN(CCc3ccccc3)CC2)N1` (stereo not given): the XC50 is 919 nM. `COCCCn1c(=N)c(C(=O)NCCc2ccc(OC)cc2)cc2c(=O)n3cccc(C)c3nc21`: the XC50 turned out to be 1030 nM. `Cc1nc(C)c(-c2ccc(Oc3cc(Cl)cc(Cl)c3)cc2)c(O)c1Cl` registered an XC50 of 524 nM. The value for `COc1ccc2ncc(F)c([C@@H](O)CN3CCC(NCc4cc5c(cn4)OCS5)CC3)c2c1` was 141 nM; that for `CNC(=O)c1ccccc1Nc1cc(Nc2cc(OC)ccn2)ncc1Cl` was 930 nM. In the case of `NC(=O)c1cccc(C(=O)Nc2cccc(-c3cccc(-c4nc5cc(F)ccc5[nH]4)c3)c2)c1` it was 249 nM; in that of `NC1=NC2(CCCCC2)N(OCCCCCCCCNc2nc(N)nc(N)n2)C(N)=N1`, 59.8 nM. The value for `O=C(NC1CC1)c1ccc(Nc2nccc(-c3c(-c4cccc(NC(=O)c5c(F)cccc5F)c4)nn4ccccc34)n2)cc1` was 411 nM.

On to `CCC(C)(C)c1ccc(N2C(N)=NC(N)=NC2(C)C)cc1`, for which the XC50 came out at 11.8 nM. The value for `Cc1csc(NC2=NCCN2)n1` was 471 nM. `COc1ccc(NC(=O)CCNc2cc(C)nc(NCCc3ccc(F)cc3)n2)cc1`: the XC50 worked out at 848 nM. In the case of `COc1ccccc1Cc1nc2ccccc2nc1SCC(=O)Nc1cccc(C(F)(F)F)c1` it was 499 nM; in that of `Cc1cc(N[C@@H](Cc2ccccc2)C(=O)NC2CCCC2)nc(NCc2ccccc2C)n1`, 1230 nM; in that of `COc1cc2ccccc2c(OC)c1CCNCCCCNCCc1c(OC)cc2ccccc2c1OC`, 891 nM. Take `COc1ccc2nc(N=C3NC4(c5ccccc5)NC(=Nc5nc6ccc(OC)cc6[nH]5)NC4(c4ccccc4)N3)[nH]c2c1` (stereo not given): the XC50 is 204 nM. In the case of `N=C(N)NN=CC(=O)Nc1ccc(Cl)c(Cl)c1` it was 737 nM; in that of `CC1CCN(c2nc(C(=O)NCCc3ccc(Cl)c(Cl)c3)c(C(C)C)s2)CC1`, 1930 nM; in that of `CC1(C)CC(=O)c2c(O)cc(OCc3ccncc3)cc2O1`, 1040 nM. On to `O=c1cc(NCCCNC2CCOc3c(Cl)cccc32)[nH]c2ccccc12` (stereo not given), for which the XC50 came out at 832 nM. Regarding `Clc1ccc(CNc2nc(NCCc3c[nH]cn3)nc(N3CCCC4CCCCC43)n2)cc1` (stereo not given), the XC50 amounted to 591 nM.

The molecule `NC(=O)C1CCN(Cc2ccc(-c3ccc(-c4nc5cc(C(F)(F)F)ccc5[nH]4)cc3)cc2)CC1` yielded an XC50 of 680 nM. The value for `O=C1CSc2ccc(CNC3CCN(CCc4c(Cl)cnc5ccc(F)cc45)CC3)nc2N1` was 427 nM; that for `CCCCOc1ccc(C(=O)C(CCC(CNC(C)(C)C)C(=O)c2ccc(OCCCC)cc2)CNC(C)(C)C)cc1` (stereo not given) was 1020 nM; that for `N#Cc1ccc(-c2ccc(C(=O)NCCCCN3CCC(c4cc(Br)c5c(c4OCC(N)=O)CCCC5)CC3)cc2)cc1` was 797 nM. For `O=C(Nc1cccc(-c2ccc(CN3CCCC3)cc2)c1)c1cccc(Cl)c1`, the XC50 was found to be 430 nM.

Molecule `COc1cc2nc(N3CCC(CNC(=O)c4ccc(OC(F)(F)F)cc4)CC3)nc(N)c2cc1OC` gave an XC50 of 224 nM.

Molecule `O=C(Nc1cccc(CN2CCCN(Cc3ccc(O)cc3)CC2)c1)c1cc(F)cc(F)c1` returned an XC50 of 658 nM. The value for `CCN(CC)CCNc1nccc(N(C)c2ccc(NC(=O)Nc3cc(C(F)(F)F)ccc3F)cc2)n1` was 549 nM; that for `O=C(C=Cc1ccc(Cl)c(Cl)c1)NCCCCCN1CCC(CCCNC(=O)C2CC2c2ccccc2)CC1` (stereo not given) was 765 nM; that for `COc1cc(COc2c(C)nc(N)nc2N)cc(OC)c1OC` was 332 nM. Regarding `COc1ccc(NS(=O)(=O)c2ccc(C(=O)Nc3ccc(OC(F)(F)F)cc3)cc2)cc1N1CCN(CC2CC2)CC1`, the XC50 was determined as 1000 nM. The value for `COc1ccc(Nc2nc(N3CCCC3)c3ccccc3n2)cc1` was 750 nM; that for `CN1CCC(NCc2cccc(-c3ccc(S(=O)(=O)NCCc4ccccn4)c(F)c3)c2)CC1` was 918 nM; that for `Nc1nc(N)c2c(ccc3c2cnn3Cc2cccnc2)n1` was 48.1 nM.

In turn, `COc1ccc2nccc([C@@H](O)CN3CCC(NC(=O)C(=Cc4ccc(C#N)cc4)c4ccc(-c5ccccc5)cc4)CC3)c2c1` returned an XC50 of 739 nM. As for `Fc1cccc(COc2ccc(Nc3ncnc4sc(C#CC5CCCCN5)cc34)cc2Cl)c1` (stereo not given), the XC50 turned out to be 540 nM. The value for `CCC(C)CNC(=O)CN1CN(c2ccccc2)C2(CCN(C(=O)c3ccc(Br)cc3)CC2)C1=O` (stereo not given) was 1070 nM; that for `COc1ccc(CN2C(=S)N(Cc3ccccc3)C(=O)C2CC(=O)Nc2ccccc2)cc1OC` (stereo not given) was 844 nM. On to `COc1cc(CNc2ccc(N3CCCC3)cc2)cc(Cl)c1OC`, for which the XC50 was 700 nM. The molecule `CN(c1ccccc1)S(=O)(=O)c1cccc(NC(=O)c2ccc(-n3ccnc3)c([N+](=O)[O-])c2)c1` had an XC50 of 1130 nM. In the case of `Cc1sc(CNCCCNc2cc(=O)c3ccccc3[nH]2)c(I)c1C` it was 849 nM; in that of `CNc1nc(N/N=C/c2cc([N+](=O)[O-])c(Cl)cc2Cl)nc(Nc2cccc(C(F)(F)F)c2)n1`, 729 nM; in that of `CN(Cc1cnc2nc(N)nc(N)c2n1)c1ccc(C(=O)N[C@H](CCC(=O)OC(C)(C)C)C(=O)N[C@@H](CCC(=O)OC(C)(C)C)C(=O)OC(C)(C)C)cc1`, 1020 nM. Molecule `CC(C)c1cc(Oc2c(I)cc(CCNCc3ccccc3)cc2I)ccc1O` displayed an XC50 of 536 nM. Molecule `C[C@H](N[C@H]1CCCc2c1[nH]c1ccc(Br)cc21)c1ccccc1` gave an XC50 of 222 nM.

Take `CC(C)CCN1CCCN(Cc2cccc(C(=O)Nc3ccc(C(C)(C)C)cc3)c2)CC1`: the XC50 was found to be 1100 nM. In the case of `O=C(Cn1c(SCc2cccc(F)c2F)cc(=O)c2ccccc21)N(CCN1CCCCC1)Cc1ccc(-c2ccc(C(F)(F)F)cc2)cc1`, the XC50 is 664 nM.

In turn, `Cc1cccc2nc(-c3ccc(-c4cccc(NC(=O)NCc5ccccc5)c4)cc3)[nH]c12` displayed an XC50 of 777 nM. The value for `Nc1nccc2ccc(-c3ccc4ncccc4c3)cc12` was 112 nM; that for `Cc1cccc2nc(-c3ccc(-c4cccc(NC(=O)C(=O)c5cccn5C)c4)cc3)[nH]c12` was 976 nM; that for `CC(C)Oc1ccc2c(c1)OC(c1ccccc1)(C(F)(F)F)NC2=O` (stereo not given) was 136 nM. The value for `COc1ccc2[nH]cc(C3CCN(CCC4CCN(C(=O)/C=C/c5ccc(Cl)c(Cl)c5)CC4)CC3)c2c1` was 862 nM; that for `O=C(COc1ccc(F)cc1)NC1CCN(c2ccnc3cc(Cl)ccc23)C1` (stereo not given) was 265 nM; that for `O=C(NCCCCN1CCC(c2ccc3c(c2OCc2ccccn2)CCCC3)CC1)c1ccc(NC(=O)c2ccc(Cl)cc2)cc1` was 803 nM. In the case of `Cc1ccc2ccncc2c1N` it was 697 nM; in that of `COC(=O)C(NC(=O)NC1CCN(c2ccnc(Nc3ccc(F)cc3)n2)C1)c1ccccc1` (stereo not given), 1050 nM; in that of `O=C(NC1CCN(CCC[C@]2(c3ccc(Cl)c(Cl)c3)CCCN(C(=O)c3ccccc3)C2)CC1)c1ccc(F)cc1`, 883 nM. In the case of `COc1ccc(S(=O)(=O)NC2CCN(c3ccc(C(F)(F)F)cc3NC(=O)OCC(C)C)CC2)cc1`, the XC50 stood at 1220 nM. The value for `Cc1cccc2sc(N(CCCn3ccnc3)C(=O)C=Cc3cccs3)nc12` was 1280 nM. In the case of `Cc1ccc(CNC(=O)[C@H](Cc2ccccc2)Nc2ccnc(NCC3CCCCC3)n2)cc1`, the XC50 amounted to 1190 nM. In the case of `Cc1ccc(C2CC(=O)CC(c3ccccn3)C2[N+](=O)[O-])cc1` (stereo not given) it was 859 nM. In the case of `COc1ccc(O)c(-c2sc(N=C(N)N)nc2-c2ccccc2)c1`, the XC50 is 372 nM. In the case of `COc1ccc(C2CC(=O)C3=C(C2)NC(C)=C(C(=O)OC2CCCC2)C3c2ccc(O)cc2)cc1OC` (stereo not given) it was 565 nM.
